Source: ChEMBL document CHEMBL5543088, “Targeting G-rich sequence to regulate the transcription of murine double minute (MDM) genes in triple-negative breast cancers” (Eur J Med Chem, 2024)
Each block holds one compound with its values, some of them ahead of it. The source made the active and inactive calls. The calls are words filed in the database; no cut-off is given here.

Legend:
[1] = system: RNA; assay: Inhibition of wild-type G1 of MDM2 expressed in human HCC1937 cells upto 1 uM incubated for 24 hrs by luciferase reporter assay; format: cell-based
[2] = system: RNA; assay: Induction of wild-type G5 of MDMX expressed in human HCC1937 cells upto 1 uM incubated for 24 hrs by luciferase reporter assay; format: cell-based; conditions: filed as activator
[3] = Inhibition of cell proliferation in human HL7702 cells by MTT assay; format: toxicity, cell-based; conditions: HL7702 (L02) cells
[4] = system: HCC1937; assay: Inhibition of cell proliferation in human HCC1937 cells by MTT assay; format: functional, cell-based
[5] = system: MDA-MB-231; assay: Inhibition of cell proliferation in human MDA-MB-231 cells by MTT assay; format: functional, cell-based
[6] = Inhibition of cell proliferation in HUVEC cells by MTT assay; format: toxicity, cell-based; conditions: human
[7] = system: HCC1806; assay: Inhibition of cell proliferation in human HCC1806 cells by MTT assay; format: functional, cell-based
[8] = system: HCC1937; assay: Effect on cell proliferation in human HCC1937 cells overexpressing BLM assessed as cell survival at 6 uM; format: functional, cell-based
[9] = system: HCC1937; assay: Downregulation of MDMX level in human HCC1937 cells upto 3 uM incubated for 24 hrs by Western blot analysis; format: functional, cell-based
[10] = system: HCC1937; assay: Downregulation of MDM2 level in human HCC1937 cells upto 3 uM incubated for 24 hrs by Western blot analysis; format: functional, cell-based
[11] = system: Quadruplex RNA; assay: Binding affinity to NRAS RNA G-quadruplex (unknown origin) assessed as thermal stability by measuring increase in melting temperature by FRET assay; format: nucleic-acid assay
[12] = molecular target: Quadruplex DNA; assay: Binding affinity to biotin-labeled c-myc DNA G-quadruplex (unknown origin) immobilized on SA biosensor assessed as dissociation constant by BLI assay; format: nucleic-acid assay
[13] = system: Quadruplex DNA; assay: Binding affinity to c-myc DNA G-quadruplex (unknown origin) assessed as thermal stability by measuring increase in melting temperature by FRET assay; format: nucleic-acid assay
[14] = molecular target: RNA; assay: Binding affinity to biotin-labeled G5 of MDMX (unknown origin) immobilized on SA biosensor assessed as dissociation constant by BLI assay; format: nucleic-acid assay, Homo sapiens
[15] = system: RNA; assay: Binding affinity to FAM/TAMRA-labeled G1 of MDM2 (unknown origin) assessed as thermal stability by measuring increase in melting temperature by FRET assay; format: nucleic-acid assay; conditions: Homo sapiens
[16] = molecular target: RNA; assay: Binding affinity to biotin-labeled G1 of MDM2 (unknown origin) immobilized on SA biosensor assessed as dissociation constant by BLI assay; format: nucleic-acid assay, Homo sapiens
[17] = system: RNA; assay: Binding affinity to FAM/TAMRA-labeled G5 of MDMX (unknown origin) assessed as thermal stability by measuring increase in melting temperature by FRET assay; format: nucleic-acid assay; conditions: Homo sapiens
[18] = system: HCC1937; assay: Induction of apoptosis in siMDM2-treated human HCC1937 cells assessed as increase in cleaved caspase-3 level upto 6 uM by Western blot analysis; format: functional, cell-based
[19] = system: RNA; assay: Binding affinity to TAMRA-labeled wild-type G1 of MDM2 transfected in human HCC1937 cells at 3 uM incubated for 6 hrs by BG4 antibody based analysis; format: cell-based
[20] = system: HCC1937; assay: Induction of apoptosis in human HCC1937 cells assessed as increase in cleaved caspase-3 level upto 6 uM incubated for 24 hrs by Western blot analysis; format: functional, cell-based
[21] = system: HCC1937; assay: Induction of apoptosis in siMDMX-treated human HCC1937 cells assessed as increase in cleaved caspase-3 level upto 6 uM by Western blot analysis; format: functional, cell-based
[22] = system: HCC1937; assay: Inhibition of cell proliferation in siMDMX-treated human HCC1937 cells by MTT assay; format: functional, cell-based
[23] = system: HCC1937; assay: Inhibition of cell proliferation in Nutlin3a-treated human HCC1937 cells by MTT assay; format: functional, cell-based
[24] = system: HCC1937; assay: Downregulation of MDM2 level in siMDMX-treated human HCC1937 cells upto 6 uM by Western blot analysis; format: functional, cell-based
[25] = system: RNA; assay: Inhibition of G1 mutant of MDM2 expressed in human HCC1937 cells upto 3 uM incubated for 24 hrs by luciferase reporter assay; format: cell-based
[26] = system: HCC1937; assay: Effect on DNAPKcs phosphorylation at Ser2056 in human HCC1937 cells upto 6 uM incubated for 24 hrs by Western blot analysis; format: functional, cell-based
[27] = system: RNA; assay: Binding affinity to TAMRA-labeled wild-type G5 of MDMX transfected in human HCC1937 cells at 3 uM incubated for 6 hrs by BG4 antibody based analysis; format: cell-based; conditions: filed as activator
[28] = system: RNA; assay: Binding affinity to TAMRA-labeled G1 mutant of MDM2 transfected in human HCC1937 cells at 3 uM incubated for 6 hrs by BG4 antibody based analysis; format: cell-based
[29] = system: HCC1937; assay: Upregulation of MDMX mRNA level in human HCC1937 cells upto 3 uM by qPCR analysis; format: functional, cell-based
[30] = system: HCC1937; assay: Upregulation of MDMX level in siMDMX-treated human HCC1937 cells upto 6 uM by Western blot analysis; format: functional, cell-based
[31] = molecular target: Quadruplex RNA; assay: Binding affinity to biotin-labeled NRAS RNA G-quadruplex (unknown origin) immobilized on SA biosensor assessed as dissociation constant by BLI assay; format: nucleic-acid assay
[32] = system: HCC1937; assay: Downregulation of MDM2 mRNA level in human HCC1937 cells upto 3 uM by qPCR analysis; format: functional, cell-based
[33] = system: HCC1937; assay: Downregulation of MDM2 level in human HCC1937 cells upto 6 uM incubated for 24 hrs by Western blot analysis; format: functional, cell-based
[34] = system: HCC1937; assay: Effect on H2AX phosphorylation at Ser139 in human HCC1937 cells upto 6 uM incubated for 24 hrs by Western blot analysis; format: functional, cell-based
[35] = system: HCC1937; assay: Upregulation of MDMX level in human HCC1937 cells upto 6 uM incubated for 24 hrs by Western blot analysis; format: functional, cell-based
[36] = system: HCC1937; assay: Upregulation of MDMX level in siMDM2-treated human HCC1937 cells upto 6 uM by Western blot analysis; format: functional, cell-based
[37] = system: RNA; assay: Binding affinity to TAMRA-labeled G5 mutant of MDMX transfected in human HCC1937 cells at 3 uM incubated for 6 hrs by BG4 antibody based analysis; format: cell-based
[38] = system: HCC1937; assay: Inhibition of cell proliferation in siMDM2-treated human HCC1937 cells by MTT assay; format: functional, cell-based; conditions: dose <= 6.0 µM
[39] = system: RNA; assay: Binding affinity to G1 of MDM2 (unknown origin) at 10 uM by CD spectrum assay; format: nucleic-acid assay; conditions: Homo sapiens
[40] = system: HCC1937; assay: Effect on cell proliferation in human HCC1937 cells overexpressing BLM assessed as cell survival at 6 uM relative to control; format: functional; conditions: read-out: Activity
[41] = system: RNA; assay: Inhibition of wild-type G1 of MDM2 expressed in human HCC1937 cells upto 3 uM incubated for 24 hrs by luciferase reporter assay; format: cell-based
[42] = system: HCC1937; assay: Inhibition of cell proliferation in human HCC1937 cells assessed as decrease in cell survival at 6 uM relative to control; format: functional
[43] = system: HCC1937; assay: Induction of apoptosis in siMDMX-treated human HCC1937 cells at 6 uM (reference value: 55.8 %); format: functional
[44] = system: RNA; assay: Induction of wild-type G5 of MDMX expressed in human HCC1937 cells upto 3 uM incubated for 24 hrs by luciferase reporter assay; format: cell-based; conditions: filed as activator
[45] = system: HCC1937; assay: Inhibition of apoptosis in siMDM2-treated human HCC1937 cells at 6 uM (reference value: 55.8 %); format: functional
[46] = molecular target: DNA; assay: Binding affinity to biotin-labeled ss26 DNA (unknown origin) immobilized on SA biosensor assessed as dissociation constant by BLI assay; format: nucleic-acid assay
[47] = molecular target: dsDNA; assay: Binding affinity to biotin-labeled ds26 DNA (unknown origin) immobilized on SA biosensor assessed as dissociation constant by BLI assay; format: nucleic-acid assay
[48] = system: RNA; assay: Binding affinity to G5 of MDMX (unknown origin) at 10 uM by CD spectrum assay; format: nucleic-acid assay; conditions: Homo sapiens, filed as activator
[49] = system: RNA; assay: Induction of G5 mutant of MDMX expressed in human HCC1937 cells upto 3 uM incubated for 24 hrs by luciferase reporter assay; format: cell-based

Compound: C[n+]1ccc(-c2c3nc(c(-c4cc[n+](C)cc4)c4ccc([nH]4)c(-c4cc[n+](C)cc4)c4ccc([nH]4)c(-c4cc[n+](C)cc4)c4nc2C=C4)C=C3)cc1
- inhibition [1]: Active
- Activity [2]: Active

- IC50 [4]: 6.4 µM
- IC50 [5]: 8.2 µM
- IC50 [7]: 3.5 µM
Compound: N=C(N)SCc1c2ccccc2c(Br)c2ccccc12
- IC50 [3]: 24.5 µM
- IC50 [6]: 20.3 µM

- IC50 [4]: > 50 µM
- IC50 [5]: > 50 µM
- IC50 [7]: > 50 µM
Compound: N=C(N)SCc1cccc2ccccc12
- IC50 [3]: > 50 µM
- IC50 [6]: > 50 µM

- IC50 [4]: 6.4 µM
- IC50 [5]: 2.1 µM
- ΔTm [11]: -0.2 °C
- IC50 [7]: 6.9 µM
Compound: Cc1c2ccccc2c(CSC(=N)N)c2ccccc12
- IC50 [3]: 5 µM
- Activity [8]: inactive
- Activity [9]: Active
- Activity [10]: Active
- IC50 [6]: 3.5 µM

- Kd [12]: > 25 µM
- ΔTm [13]: 17 °C
- Kd [14]: 7.3 µM
- ΔTm [11]: -0.4 °C
- ΔTm [15]: 25 °C
- Kd [16]: 9.8 µM
- ΔTm [17]: 22 °C
Compound: Cc1c2ccccc2c(C[P+](c2ccccc2)(c2ccccc2)c2ccccc2)c2ccccc12

- IC50 [4]: > 50 µM
- IC50 [5]: > 50 µM
- IC50 [7]: > 50 µM
Compound: N=C(N)SCc1ccc([N+](=O)[O-])cc1
- IC50 [3]: > 50 µM
- IC50 [6]: > 50 µM

- Kd [12]: 15.6 µM
- ΔTm [13]: 18 °C
- Kd [31]: 24 µM
- ΔTm [11]: 0.1 °C
- Activity [39]: Active
- ΔTm [15]: 33 °C
- Kd [46]: 10.8 µM
- ΔTm [17]: 30 °C
- Kd [47]: 23.5 µM
- Activity [48]: Active
Compound: Brc1c2ccccc2c(C[P+](c2ccccc2)(c2ccccc2)c2ccccc2)c2ccccc12.[Br-]
- Activity [18]: inactive
- Activity [19]: Active
- inhibition ([4]; dose <= 6.0 µM): Dose-Dependent Effect
- Activity [20]: Active
- Activity [21]: Active
- inhibition [22]: Active
- inhibition [23]: inactive
- Activity [24]: Active
- inhibition [25]: inactive
- Activity [26]: inactive
- Activity [27]: Active
- Activity [28]: inactive
- Activity [29]: Active
- Activity [30]: Active
- Activity [32]: Active
- Activity [33]: Active
- Activity [34]: inactive
- Activity [35]: Active
- Activity [36]: Active
- Activity [37]: inactive
- inhibition [38]: inactive
- viability at 6 µM [40]: 85.3%
- inhibition [41]: Active
- inhibition at 6 µM [42]: 27.7%
- Activity [43]: ~70.4%
- Activity [44]: Active
- inhibition at 6 µM [45]: 30.6%
- Activity [49]: inactive

- IC50 [4]: > 50 µM
- IC50 [5]: > 50 µM
- IC50 [7]: > 50 µM
Compound: Cc1ccc(CSC(=N)N)cc1
- IC50 [3]: > 50 µM
- IC50 [6]: > 50 µM

- IC50 [4]: 16.8 µM
- IC50 [5]: 6 µM
- IC50 [7]: 12.5 µM
Compound: N=C(N)SCc1c2ccccc2cc2ccccc12
- IC50 [3]: 20.7 µM
- IC50 [6]: 9.6 µM

- IC50 [4]: > 50 µM
- IC50 [5]: 48 µM
- IC50 [7]: > 50 µM
Compound: N=C(N)SCC1c2ccccc2CCc2ccccc21
- IC50 [3]: > 50 µM
- IC50 [6]: > 50 µM

- IC50 [4]: > 50 µM
- IC50 [5]: > 50 µM
- IC50 [7]: > 50 µM
Compound: N=C(N)SCc1c2ccccc2nc2ccccc12
- IC50 [3]: > 50 µM
- IC50 [6]: > 50 µM

- IC50 [4]: > 50 µM
- IC50 [5]: > 50 µM
- IC50 [7]: > 50 µM
Compound: N=C(N)SCc1ccc2ccccc2c1
- IC50 [3]: > 50 µM
- IC50 [6]: > 50 µM

- Kd [12]: > 25 µM
- ΔTm [13]: 16.5 °C
- Kd [14]: 8.8 µM
- ΔTm [11]: 0.2 °C
- ΔTm [15]: 24 °C
- Kd [16]: 10.6 µM
- ΔTm [17]: 22 °C
Compound: c1ccc([P+](Cc2c3ccccc3cc3ccccc23)(c2ccccc2)c2ccccc2)cc1
